This note sets out measurements from patent publication US20240391948A1, “NOVEL COMPOUND THAT INHIBITS TNF-ALPHA GENERATION AND INFLAMMASOME ACTIVITY AND PREPARATION METHOD THEREFOR” (SHAPERON INC., priority 2021, published 2024).

Common to all, as to assay type: cell-based
Test [1] concerns J774A.1 (Mouse BALB/c monocyte macrophage cell line) cells. Description: LPS-induced TNF-α secretion inhibition in J774A.1 cells. To be noted: J774.A1, 1 μM compound, graded compared to taurodeoxycholic acid (positive control), read-out: TNF-α production inhibition grade. How it is done:
(§1) To evaluate anti-inflammatory efficacy, an inflammatory response was induced in J774A.1 (Mouse BALB/c monocyte macrophage cell line) cells derived from mouse macrophages by LPS (lipopolysaccharide) and LPS+ATP (adenosine triphosphate), and the efficacy of taurine-bile acid derivatives to inhibit the production of inflammatory cytokines (IL-1β, TNF-α) was measured. After treating J774A.1 cells with 1 μM of a taurine-bile acid derivative, the degree to which the secretion of TNF-α among cytokines was suppressed was measured in the experimental group in which an inflammatory response was induced by LPS, and the extent to which IL-1β secretion among cytokines was suppressed was measured in the experimental group in which an inflammatory response was induced with LPS+ATP. The ability of taurine-bile acid derivatives to inhibit cytokine production was graded compared to taurodeoxycholic acid, a positive control. The grading criteria are A: over 100%, B: over 50% and under 100%, C: between 20% and under 50%, and D: under 20%.

The test system is the same in test [2]. Kind of test: LPS+ATP-induced IL-1β secretion inhibition in J774A.1 cells. To be noted: J774.A1, 1 μM compound, graded compared to taurodeoxycholic acid (positive control), read-out: IL-1β production inhibition grade. The protocol: as §1
Test [3] deals with U937 cells (human monocytic cell line). Kind of test: Pam2CSK4-induced TNF-α secretion inhibition in PMA-differentiated U937 cells. The note with it: U-937, U937 cells differentiated with PMA, read-out: TNF-α production inhibition grade (IC50). How it is done:
(§2) To evaluate anti-inflammatory efficacy, U937 cells (human monocytic cell line) were differentiated into macrophages using PMA (phorbol 12-myristate 13-acetate) and then induced an inflammatory response with Pam2CSK4 (Pam2CysSerLys4) or BzATP (2′(3′)—O-(4-Benzoylbenzoyl)adenosine 5′-triphosphate), the efficacy of taurine-bile acid derivatives in suppressing inflammatory cytokine (IL-1β, TNF-α) production was measured.
(§3) Using PMA, U937 cells were differentiated into macrophages, and the extent of TNF-α secretion inhibition was measured in an experimental group where taurine-bile acid derivatives was treated, followed by induction of inflammatory response with Pam2CSK4, and in the experimental group in which an inflammatory response was induced with BzATP, the extent to which IL-1β secretion among cytokines was suppressed was measured.
(§4) The ability of taurine-bile acid derivatives to inhibit cytokine production was expressed in terms of IC50 (μM) values. The standards for TNF α inhibition ability are A: less than 0.5, B: 0.5 to less than 1.0, C: 1.0 to less than 2.0, D: 2.0 or more, and the IL-1β inhibition ability grade standards are A: less than 0.05, B: 0.05 to less than 0.10, C: 0.10 or more and less than 0.20, D: 0.20 or more.

Test [4] shares this test system. Description: BzATP-induced IL-1β secretion inhibition in PMA-differentiated U937 cells. The note with it: U-937, U937 cells differentiated with PMA, read-out: IL-1β production inhibition grade (IC50). The protocol:
as §2, §3, §4

A value given as a limit tells only on which side of the number the result lay.

Broadly, the inhibition is how much of the control response was suppressed. Usually IC50 stands for the midpoint of a concentration-inhibition curve. In the case of `C[C@H](CCC(=O)N(CCS(=O)(=O)O)Cc1cccnc1)[C@H]1CC[C@H]2[C@@H]3[C@H](O)C[C@@H]4C[C@H](O)CC[C@]4(C)[C@H]3C[C@H](O)[C@]12C` [NC20036], the inhibition at 1 µM in test [1] and in test [2] was below 20% throughout. Further, the IC50 in test [3] is 500 to 1000 nM; in test [4], 50 to 100 nM.
On to `C[C@H](CCC(=O)N[C@@H](CO)CS(=O)(=O)O)[C@H]1CC[C@H]2[C@@H]3CC[C@@H]4C[C@H](O)CC[C@]4(C)[C@H]3CC[C@]12C` [NC10080], for which the inhibition at 1 µM is below 20% in test [1] and above 100% in test [2]. In addition, the IC50 in test [3] fell in the range of 500 to 1000 nM; in test [4], 100 to 200 nM.
Turning to `C[C@H](CCC(=O)NC[C@H](C)S(=O)(=O)O)[C@H]1CC[C@H]2[C@@H]3CC[C@@H]4C[C@H](O)CC[C@]4(C)[C@H]3C[C@H](O)[C@]12C` [NC10038], the inhibition at 1 µM in test [1] is below 20%; in test [2] it was 50 to 100%. Besides, the IC50 in test [3] is at least 2000 nM; in test [4] it was 50 to 100 nM.
As to `C[C@H](CCC(=O)NC(C)(C)CS(=O)(=O)O)[C@H]1CC[C@H]2[C@@H]3CC[C@@H]4C[C@H](O)CC[C@]4(C)[C@H]3C[C@H](O)[C@]12C` [NC10029], the inhibition at 1 µM was below 20% in test [1] and above 100% in test [2]. The IC50 in test [3] was at least 2000 nM; in test [4] it was 50 to 100 nM.
Regarding `C[C@H](CCC(=O)N1CCC[C@H]1CS(=O)(=O)O)[C@H]1CC[C@H]2[C@@H]3CC[C@@H]4C[C@H](O)CC[C@]4(C)[C@H]3CC[C@]12C` [NC10077], the inhibition at 1 µM in test [1] is below 20%; in test [2] it was above 100%. Moreover, the IC50 in test [3] was below 500 nM; in test [4], below 50 nM.
As to `C[C@H](CCC(=O)N1CCC(S(=O)(=O)O)CC1)[C@H]1CC[C@H]2[C@@H]3CC[C@@H]4C[C@H](O)CC[C@]4(C)[C@H]3CC[C@]12C` [NC10062], the results for the inhibition at 1 µM in test [1] and in test [2] were below 20% and above 100%, respectively. The IC50 is 500 to 1000 nM in test [3] and below 50 nM in test [4].
As to `CC(C)N(CCS(=O)(=O)O)C(=O)CC[C@@H](C)[C@H]1CC[C@H]2[C@@H]3[C@H](O)C[C@@H]4C[C@H](O)CC[C@]4(C)[C@H]3C[C@H](O)[C@]12C` [NC20007], the inhibition at 1 µM was below 20% in test [1] and above 100% in test [2]. Further, the values for the IC50 in test [3] and in test [4] were 1000 to 2000 nM and below 50 nM, respectively.
As for `C[C@H](CCC(=O)NC[C@H](C)S(=O)(=O)O)[C@H]1CC[C@H]2[C@@H]3[C@H](O)C[C@@H]4C[C@H](O)CC[C@]4(C)[C@H]3C[C@H](O)[C@]12C` [NC20022], the inhibition at 1 µM in test [1] and in test [2] was below 20% in each case. Moreover, the IC50 is 1000 to 2000 nM in test [3] and below 50 nM in test [4].
`C[C@H](CCC(=O)N(CCS(=O)(=O)O)Cc1ccccc1)[C@H]1CC[C@H]2[C@@H]3CC[C@@H]4C[C@H](O)CC[C@]4(C)[C@H]3C[C@H](O)[C@]12C` [NC10022]: the inhibition at 1 µM lay within 20 to 50% in test [1] and 50 to 100% in test [2]. Besides, the IC50 is 500 to 1000 nM in test [3] and 100 to 200 nM in test [4].
In the case of `C[C@H](CCC(=O)N1CCC(CCS(=O)(=O)O)CC1)[C@H]1CC[C@H]2[C@@H]3CC[C@@H]4C[C@H](O)CC[C@]4(C)[C@H]3CC[C@]12C` [NC10012], the inhibition at 1 µM in test [1] and in test [2] was above 100% throughout. Further, the IC50 is below 500 nM in test [3] and below 50 nM in test [4].
Take `C[C@H](CCC(=O)NCCN1CCOCC1)[C@H]1CC[C@H]2[C@@H]3CC[C@@H]4C[C@H](O)CC[C@]4(C)[C@H]3C[C@H](O)[C@]12C` [NC10018]: the inhibition at 1 µM in test [1] fell in the range of 50 to 100%; in test [2], 20 to 50%. In addition, the IC50 in test [3] was at least 2000 nM; in test [4], 50 to 100 nM.
Take `C[C@H](CCC(=O)NCCCS(=O)(=O)O)[C@H]1CC[C@H]2[C@@H]3CC[C@@H]4C[C@H](O)CC[C@]4(C)[C@H]3CC[C@]12C` [NC10014]: the inhibition at 1 µM in test [1] and in test [2] was below 20% in each case. Further, the results for the IC50 in test [3] and in test [4] were 1000 to 2000 nM and below 50 nM, respectively.
For `C[C@H](CCC(=O)N[C@@H]1CCCC[C@@H]1S(=O)(=O)O)[C@H]1CC[C@H]2[C@@H]3CC[C@@H]4C[C@H](O)CC[C@]4(C)[C@H]3CC[C@]12C` [NC10082], the inhibition at 1 µM in test [1] and in test [2] was above 100% throughout. Besides, the IC50 in test [3] was below 500 nM; in test [4], below 50 nM.
Regarding `CC[C@H]1[C@@H](O)[C@@H]2[C@H](CC[C@]3(C)[C@@H]([C@H](C)CCC(=O)N(CCS(=O)(=O)O)C4CCOCC4)CC[C@@H]23)[C@@]2(C)CC[C@@H](O)C[C@@H]12` [NC40008], the inhibition at 1 µM in test [1] and in test [2] was above 100% throughout. Also, the IC50 in test [3] was below 500 nM; in test [4] it was below 50 nM.
`C[C@H](CCC(=O)Nc1ccc(S(=O)(=O)O)cc1)[C@H]1CC[C@H]2[C@@H]3CC[C@@H]4C[C@H](O)CC[C@]4(C)[C@H]3CC[C@]12C` [NC10015]: the inhibition at 1 µM in test [1] and in test [2] was below 20% each time. For the same molecule, the values for the IC50 in test [3] and in test [4] were at least 2000 nM and below 50 nM, respectively.
For the molecule `CC[C@H]1[C@@H](O)[C@@H]2[C@H](C[C@H](O)[C@]3(C)[C@@H]([C@H](C)CCC(=O)N[C@@H](CC(C)C)CS(=O)(=O)O)CC[C@@H]23)[C@@]2(C)CC[C@@H](O)C[C@@H]12` [NC50030], the inhibition at 1 µM was below 20% in test [1] and 50 to 100% in test [2]. The values for the IC50 in test [3] and in test [4] were at least 2000 nM and 100 to 200 nM, respectively.
Turning to `C[C@H](CCC(=O)NC1(CS(=O)(=O)O)CC1)[C@H]1CC[C@H]2[C@@H]3CC[C@@H]4C[C@H](O)CC[C@]4(C)[C@H]3CC[C@]12C` [NC10088], the inhibition at 1 µM was 20 to 50% in test [1] and below 20% in test [2]. The IC50 in test [3] is below 500 nM; in test [4], at least 200 nM.
Turning to `C[C@H](CCC(=O)N[C@H](CS(=O)(=O)O)c1ccccc1)[C@H]1CC[C@H]2[C@@H]3CC[C@@H]4CC(=O)CC[C@]4(C)[C@H]3CC[C@]12C` [NC30018], the inhibition at 1 µM in test [1] and in test [2] was below 20% throughout. In addition, the IC50 in test [3] is at least 2000 nM; in test [4], at least 200 nM.
With `CC[C@H]1[C@@H](O)[C@@H]2[C@H](CC[C@]3(C)[C@@H]([C@H](C)CCC(=O)N[C@H]4CCCC[C@H]4S(=O)(=O)O)CC[C@@H]23)[C@@]2(C)CC[C@@H](O)C[C@@H]12` [NC40027], the inhibition at 1 µM in test [1] is below 20%; in test [2], 50 to 100%. Moreover, the IC50 in test [3] was at least 2000 nM; in test [4], at least 200 nM.
With `C[C@H](CCC(=O)N1CC[C@@H](S(=O)(=O)O)C1)[C@H]1CC[C@H]2[C@@H]3CC[C@@H]4C[C@H](O)CC[C@]4(C)[C@H]3C[C@H](O)[C@]12C` [NC10049], the inhibition at 1 µM in test [1] is below 20%; in test [2], above 100%. The IC50 is below 500 nM in test [3] and below 50 nM in test [4].
